From BindingDB's records for doi:10.1021/np980122t (Istituto Per La Chimica Di Molecole Di Interesse Biologico …, 1998)

Key:
[1] = Inhibition of rat air pouch group2 sPLA2 at 10 uM by liquid scintillation counting
[2] = Inhibition of human synovial group2 sPLA2 at 10 uM by liquid scintillation counting
[3] = Inhibition of Naja naja venom group1 sPLA2 at 10 uM by liquid scintillation counting
[4] = Inhibition of bee venom group3 sPLA2 at 10 uM by liquid scintillation counting

SMILES | inhibition [1] | inhibition [2] | IC50 [3] | IC50 [4]
C[C@H]1CC[C@@]23C[C@]2(C)CCC[C@@H]3[C@@]1(C)CCC1=CC[C@H](C2=CC(=O)O[C@H]2O)OC1 [cacospongionolide] | 21.8% | 90.7% | 3.5 µM | –
C=C1CCC[C@H]2[C@](C)(CCC3=CCC(C4=CC(=O)OC4O)OC3)[C@H](C)CC[C@]12C (stereo partly drawn) [CACOSPONGIONOLIDE B] | 36.9% | 86.7% | – | 35.4 µM
CC1=CCC[C@@H]2[C@@](C)(CCC3=CC[C@H](C4=CC(=O)O[C@H]4O)OC3)[C@@H](C)CC[C@@]12C [cacospongionolide E] | 65.1% | 96.7% | – | 94.8 µM
CC1=C(CC/C(C)=C/CCC2=CC[C@H](C3=CC(=O)O[C@H]3O)O[C@H]2O)C(C)(C)CCC1 [5-Hydroxy-4-{(R)-6-hydroxy-5-[(E)-4-methyl-6-(2,6,6-trimethyl-cyclohex-1-enyl)-hex-3-enyl]-3,6-dihydro-2H-pyran-2-yl}-5H-furan-2-one] | 38.4% | 93.2% | 17 µM | 62.5 µM
